Holding throughout (type): cell-based
In one test the test system is NF-κB. Kind of test: Test for an Activity of Inhibiting NF-κB Activation (gel shift assay, UVB-irradiated human epidermal cells). As to conditions: light or radiation study, read-out: inhibitory rate (%) of NF-κB activation. The method, then: Test for an Activity of Inhibiting NF-κB Activation
(§1) Eighteen hours later, the culture solution was replaced with a phenol red-free medium. The cells were subjected to UV irradiation (UVB: 50 mJ/m^2)using Dermaray M-DMR-80 (supplied by Toshiba Iryo Yohin KK). After from 4 to 5 hours passed, the cells were recovered, and the nucleoproteins were extracted in a usual manner. With respect to the resulting nucleoproteins, NF-κB activated by gel shift assay was detected. The amount of NF-κB was determined by measuring a radioactivity of an NF-κB band using a bio-imaging analyzer BAS 2000 (supplied by Fuji Photo Film). The rate of inhibition of NF-κB activation on the test compound was calculated using formula (III).
Rate (%) of inhibition of NF-κB activation={1−(A1−A3)/(A2−A3)}×100 (III)
A1: radioactivity of an NF-κB band in the addition of the test compound
A2: radioactivity of an NF-κB band in the non-addition of the test compound
A3: radioactivity of an NF-κB band when the test compound was not added, nor was UV irradiation conducted
(A gel shift assay detects complexes by their altered migration in electrophoresis.)

In another test the test system is AP-1. Kind of test: Test for an Activity of Inhibiting AP-1 Activation (gel shift assay, UVA-irradiated human dermal fibroblasts). As to conditions: AP1, light or radiation study, read-out: inhibitory rate (%) of AP-1 activation. The method, then: Test for an Activity of Inhibiting AP-1 Activation
as §1, with “The test compound was added to human dermal fibroblasts which had become confluent in a culture plate. Eighteen” for “Eighteen”, “(UVA: 20 J/cm^2) using” for “(UVB: 50 mJ/m^2)using”, “AP-1” for “NF-κB”, “(IV).” for “(III).”
Rate (%) of inhibition of AP-1 activation={1−(A4−A6)/(A5−A6)}×100 (IV)
A4: radioactivity of an AP-1 band in the addition of the test compound
A5: radioactivity of an AP-1 band in the non-addition of the test compound
A6: radioactivity of an AP-1 band when the test compound was not added, nor was UV irradiation conducted

Another test relates to IL-1α. Kind of test: Test for an Activity of Inhibiting IL-1α Expression (ELISA, UVB-irradiated human epidermal cells). As to conditions: light or radiation study, 24 h, read-out: inhibitory rate (%) of IL-1α expression. The method, then: Test for an Activity of Inhibiting IL-1α Expression
(§2) The test compound was added to human epidermal cells which had become confluent in a culture plate. Eighteen hours later, the culture solution was replaced with a phenol red-free medium. The cells were subjected to UV irradiation (UVB: 50 mJ/cm^2) using Dermaray M-DMR-80 (supplied by Toshiba Iryo Yohin KK). After 24 hours passed, the culture solution was recovered, and the IL-1α concentration in the culture solution was measured using IL-1α·ELISA System (supplied by Amersham Corp.). The rate of inhibition of IL-1α expression on the test compound was calculated using formula (V).
Rate (%) of inhibition of IL-1α expression={1−(B1−B3)/(B2−B3)}×100 (V)
B1: IL-1α concentration in the addition of the test compound
B2: IL-1α concentration in the non-addition of the test compound
B3: IL-1α concentration when the test compound was not added, nor was UV irradiation conducted

In another test the test system is collagenase. Description: Test for an Activity of Inhibiting Collagenase Expression (MMP-1 ELISA, UVA-irradiated human dermal fibroblasts). The settings on record: Fibroblast, light or radiation study, 24 h, read-out: inhibitory rate (%) of collagenase expression. As for the experimental part:
Test for an Activity of Inhibiting Collagenase Expression
as §2, with “dermal fibroblasts” for “epidermal cells”, “(UVA; 20 J/cm^2)” for “(UVB: 50 mJ/cm^2)”, “collagenase” for “IL-1α”, “MMP-1α·ELISA” for “IL-1α·ELISA”, “(VI).” for “(V).”
Rate (%) of inhibition of collagenase expression={1−(B4−B6)/(B5−B6)}×100 (VI)
B4: collagenase concentration in the addition of the test compound
B5: collagenase concentration in the non-addition of the test compound
B6: collagenase concentration when the test compound was not added, nor was UV irradiation conducted
For orientation: In an ELISA, binding on a coated surface is turned into a signal by an enzyme label.

The text below walks through data of patent US6552061B1, “Amino acid derivatives and anti-inflammatory agents” (Ajinomoto Co., Inc., priority 1998, dated 2003).

Turning to `CCCCCCCCCCCCOC(=O)[C@H](CCC(=O)O)NCc1ccccc1O` [N-(2-hydroxybenzyl)-L-glutamic acid lauryl ester], the inhibition at 100 µM in the test with NF-κB (concentration 100 μM) stood at 45%. The inhibition at 10 µM in the test with AP-1 (concentration 10 μM) amounted to 33%; with IL-1α (concentration 10 μM), 54%; in the test on collagenase (concentration 10 μM) it was 49%. Also, the inhibition at 1 µM with collagenase (concentration 1 μM) was found to be 53%.

As to `CCOC(=O)[C@H](CO)NCc1ccccc1O` [N-(2-hydroxybenzyl)-L-serine ethyl ester], the inhibition at 1000 µM in the test with NF-κB (concentration 1 mM) is 37%; in the test on AP-1 (concentration 1 mM), 73%. Besides, the inhibition at 2000 µM in the test on NF-κB (concentration 2 mM) came out at 56%; with IL-1α (concentration 2 mM), 44%. For the same molecule, the inhibition at 500 µM in the test on collagenase (concentration 0.5 mM) came to 30%.
